According to patent EP2141163A1, “Substituted thiazolidinones, their production and utilisation as medicine” (Bayer Schering Pharma Aktiengesellschaft, priority 2008, dated 2010):
Where two headings read alike, the source gives them in different places.

Assays:
[1] = biological target: T1, PLK-1 (Homo sapiens, UniProt P53350); assay: PLK-1 enzyme assay at 10 mM ATP (indirect HTRF assay); format: biochemical; conditions: read-out: Inhibition PLK-1 IC50 [M] (10 mM ATP)
T1 construct: Fusionsprotein bestehend aus GST und Plk (Kinase Domäne 33-345; MW 36 kDa, conc 0,8 µg/µl); GST; made in house; host or cells: Hi5 insect cells
T1 sequence (P53350 33-345): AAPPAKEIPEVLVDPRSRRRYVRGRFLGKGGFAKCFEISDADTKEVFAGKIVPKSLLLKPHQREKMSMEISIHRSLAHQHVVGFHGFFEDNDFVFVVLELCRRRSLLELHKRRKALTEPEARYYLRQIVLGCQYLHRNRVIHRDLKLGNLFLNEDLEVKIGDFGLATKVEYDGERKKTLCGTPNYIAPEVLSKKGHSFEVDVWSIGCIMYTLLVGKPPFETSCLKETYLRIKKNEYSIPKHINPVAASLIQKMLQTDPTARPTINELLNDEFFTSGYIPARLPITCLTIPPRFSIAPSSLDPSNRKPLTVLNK
Description: PLK Enzym-Assay (10 mM ATP)
Für den Kinaseassay wird aus Insektenzellen (Hi5) exprimiertes, durch Glutathion-Sepharose-Affinitätschromatographie und anschließender Gel-filtration (Suerdex 75) gereinigtes rekombinantes Fusionsprotein bestehend aus GST und Plk (Kinase Domäne 33-345; MW 36 kDa, conc 0,8 µg/µl) verwendet. Aliqots hiervon werden in flüssigem Stickstoff weggefroren und bei -80°C gelagert und nach dem Auftauen nur einmal verwendet.
Bei dem verwendeten Assay handelt es sich um einen indirekten HTRF-Assay, bei dem folgende Materialien und Verfahrensweisen zum Einsatz kamen. Als Substrat für die Kinasereaktion wird das biotinylierte Peptid Btn-Ahx-KKLNRTLSFAEPG-Amid x TFA, von Biosyntan, Probennr.: 6178.1 (C-Terminus in Amidform) verwendet. Hierbei handelt es sich um eine artifizielle Sequenz, die von keinem bekannten Protein abgeleitet wurde.
50 nl der in 100% Dimethylsulfoxid (DMSO) gelösten Testverbindungen (Endkonzentrationen : 0 µM und Konzentrationen im Bereich von 0,001 - 20 µM) werden mit 2 µl Enzym Arbeitslösung (0,039 ng/µl Plk-1 im Arbeitspuffer [25 mM MgCl2; 1mM DTT; 50 mM Hepes pH 7,0; 0,01% NP40; 1x Complete; 0,05% BSA] für 30 min vorinkubiert. Anschließend wird die Kinase-Reaktion durch Zugabe von 3 µl Substratlösung [16,7 mM Adenosintriphosphate (ATP) und 1,4 µM Substratpeptid (Biotin-Ttds- KKLNRTLSFAEPG -NH2)] in Arbeitspuffer gestartet, und nach 30 min durch Zugabe einer Abstopp-Lösung (100 mM EDTA, 100 mM Hepes pH 7,5, 800 mM Potassiumfluoride, 0,12% BSA, 0,4 µM SA-XLent (0,05 µM, von CIS bio international, Marcoule, Frankreich), Eu^3+ Cryptate-conjugated Rabbit anti-Mouse IgG (1,5 nM; ein mit Europiumkryptat markierter Anti-Maus-IgG-Antikörper von CIS bio international, Marcoule, Frankreich), 1 nM Anti-phospho-Serine Kinase (ein phospho-spezifischer Antikörper von Upstate Biotechnology, Dundee, Schottland), gestoppt, und bei 4°C über Nacht inkubiert. Danach wird die Menge des phosphorylierten Substratpeptids durch Messung des Resonanzenergietransfers vom Europium-markierten Antikörperkomplex zum Streptavidine-XLent bestimmt. Zu diesem Zweck wird die Fluoreszenzemission bei 620 nm und 665 nm nach Anregung bei 350 nm in einem HTRF-Messgerät, z. B. Rubystar (BMG Labtechnologies, Offenburg, Deutschland) oder Viewlux (Perkin-Elmer), bestimmt. Das Verhältnis der Emissionen bei 665 nm und bei 620 nm wird als Maß für die Menge des phosphorylierten Substratpeptids verwendet. Die Daten werden normalisiert (Enzymreaktion ohne Inhibitor = 0 % Inhibition, alle anderen Assaykomponenten, aber kein Enzym = 100 % Inhibition), und IC50-Werte werden durch einen 4 Parameter-Fit mit einer hauseigenen Software berechnet.

[2] = system: MCF-7; assay: Proliferation assay (crystal violet staining), MCF-7; format: cell-based, human; conditions: tumour cell proliferation, 4 days incubation, read-out: Inhibition IC50 [M] (MCF-7)
Description: (§1) Kultivierte humane Tumorzellen (MCF7, […] menschliche Mammakarzinomazellen, bezogen von ATCC HTB22; NCI-H460, menschliche nicht kleinzellige Lungenkarzinomazellen, ATCC HTB-177; DU 145, hormonunabhängige menschliche Prostatakarzinomazellen, ATCC HTB-81; HeLa-MaTu, humane Cervixkarzinomazellen, bezogen von EPO-GmbH, Berlin,) werden in einer Dichte von 5000 (MCF7, DU145) bzw. 3000 (NCI-H460, HeLa-MaTu) Zellen/Messpunkt in einer 96-Loch Multititerplatte in 200 µl des entsprechenden Wachstumsmediums ausplattiert. Nach 24 Stunden werden die Zellen einer Platte (Nullpunkt-Platte) mit Kristallviolett gefärbt (s.u.), während das Medium der anderen Platten durch frisches Kulturmedium (200 µl), dem die Testsubstanzen in verschiedenen Konzentrationen (0 µM, sowie im Bereich 0,01 - 30 µM; die finale Konzentration des Lösungsmittels Dimethylsulfoxid beträgt 0,5%) zugesetzt sind, ersetzt. Die Zellen werden für 4 Tage in Anwesenheit der Testsubstanzen inkubiert. Die Zellproliferation wird durch Färbung der Zellen mit Kristallviolett bestimmt: Die Zellen werden durch Zugabe von 20 µl/Messpunkt einer 11%igen Glutaraldehyd-Lösung 15 min bei Raumtemperatur fixiert. Nach dreimaligem Waschen der fixierten Zellen mit Wasser werden die Platten bei Raumtemperatur getrocknet. Die Zellen werden durch Zugabe von 100 µl/Messpunkt einer 0,1%igen Kristallviolett-Lösung (pH durch Zugabe von Essigsäure auf pH3 eingestellt) gefärbt. Nach dreimaligem Waschen der gefärbten Zellen mit Wasser werden die Platten bei Raumtemperatur getrocknet. Der Farbstoff wird durch Zugabe von 100 µl/Messpunkt einer 10%igen Essigsäure-Lösung gelöst. Die Extinktion wird photometrisch bei einer Wellenlänge von 595 nm bestimmt. Die prozentuale Änderung des Zellwachstums wird durch Normalisierung der Messwerte auf die Extinktionwerte der Nullpunktplatte (=0%) und die Extinktion der unbehandelten (0 µM) Zellen (=100%) berechnet. IC50-Werte werden nach einer 4-Parameterkurvenanpassung mit Hilfe eines Firmeneigenen Computerprogramms berechnet.

[3] = system: DU145; assay: Proliferation assay (crystal violet staining), DU145; format: cell-based, human; conditions: tumour cell proliferation, 4 days incubation, read-out: Inhibition IC50 [M] (DU145)
Description: as §1

[4] = system: NCI-H460; assay: Proliferation assay (crystal violet staining), NCI-H460; format: cell-based, human; conditions: tumour cell proliferation, 4 days incubation, read-out: Inhibition IC50 [M] (NCI-H460)
Description: as §1

Structure (SMILES)	IC50 [1] [M]	IC50 ([2]; Homo sapiens, MCF7, 96 h) [M]	IC50 ([3]; Homo sapiens, DU-145, 96 h) [M]	IC50 ([4]; Homo sapiens, 96 h) [M]	IC50 [2] [M]	IC50 [3] [M]	IC50 [4] [M]
CCn1c(=O)c(=CNc2ccc3ccn([C@H]4CCCC[C@H]4N(C)C)c3c2)s/c1=C(/C#N)C(=O)NCC#N (relative stereo) [B193]	1.4e-08	1.8e-07	1.8e-07	2.6e-07	–	–	–
CCn1c(=C(C#N)C(=O)NCC(F)(F)F)sc(=CNc2ccc3c(c2)N(C2CCN(C)CC2)CC3)c1=O [B01]	5.7e-09	4.4e-07	1.3e-07	1.9e-07	–	–	–
CCn1c(=O)c(=CNc2ccc3ccn(C4CCN(C)CC4)c3c2)s/c1=C(/C#N)C(=O)NCC(F)(F)F [B03, (Z,E/Z)-2-Cyan-2-[3-ethyl-5-[[[1-(1-methyl-4-piperidinyl)-1H-indol-6-yl]amino]methylen]-4-oxo-2-thiazolidinyliden]-N-(2,2,2-trifluorethyl)acetamid]	1.6e-09	–	–	–	1.4e-07	5.1e-08	9.6e-08
CCn1c(=C(C#N)C(=O)NCC#N)sc(=CNc2ccc3ccn(C4CCN(C)CC4)c3c2)c1=O [B04]	2.9e-09	7.2e-08	2.9e-08	1.4e-07	–	–	–
CCn1c(=C(C#N)C(=O)NC(C)(C)CO)sc(=CNc2ccc3ccn(C4CCN(C)CC4)c3c2)c1=O [B06]	1e-08	2.4e-07	1.2e-07	1.5e-07	–	–	–
CCn1c(=O)c(=CNc2ccc3c(CN4CCCCC4)cn(C)c3c2)s/c1=C(/C#N)C(=O)NCC#N [B08]	5.4e-09	6.1e-07	1.4e-07	3.3e-07	–	–	–
CCn1c(=O)c(=CNc2ccc3c(c2)c(CCN2CCCC2)cn3C)s/c1=C(/C#N)C(=O)NCC(F)(F)F [B35]	5.9e-09	6.4e-07	1.8e-07	3.3e-07	–	–	–
CCn1c(=C(C#N)C(=O)NCC(F)(F)F)sc(=CNc2ccc3c(c2)c(CCN(C)C)cn3C)c1=O [B39]	6.1e-09	3.8e-07	1.8e-07	4.8e-07	–	–	–
CCn1c(=C(C#N)C(=O)NCC#N)sc(=CNc2ccc3cnn(C4CCN(C(C)C)CC4)c3c2)c1=O [B44]	1.1e-09	2e-07	1.1e-07	4.9e-07	–	–	–
CCN1CCCC1Cn1ccc2ccc(NC=c3sc(=C(C#N)C(=O)NCC(F)(F)F)n(CC)c3=O)cc21 (stereo not shown) [B58]	2e-08	3.7e-07	3.2e-07	4.8e-07	–	–	–
CCn1c(=C(C#N)C(=O)NCC(F)(F)F)sc(=CNc2ccc3ccn(C4CCOCC4)c3c2)c1=O [B59]	3.7e-08	3.9e-07	1.7e-07	1.8e-07	–	–	–
CCn1c(=C(C#N)C(=O)NCC(F)(F)F)sc(=CNc2ccc3ccn(C4CCN(CC(N)=O)CC4)c3c2)c1=O [B71]	8.2e-09	1.4e-07	1.2e-07	2.1e-07	–	–	–
CCn1c(=C(C#N)C(=O)NCC(F)(F)F)sc(=CNc2ccc3ccn(C4CCN(CC(=O)OC)CC4)c3c2)c1=O [B72]	3.9e-09	1.2e-07	1.2e-07	1.1e-07	–	–	–
CCn1c(=C(C#N)C(=O)NCC(F)(F)F)sc(=CNc2ccc3ccn(CC(=O)N(C)C)c3c2)c1=O [B80]	4.9e-08	3.1e-07	5.1e-07	8.9e-07	–	–	–
CCn1c(=C(C#N)C(=O)NCC#N)sc(=CNc2ccc3cn(C4CCN(C(C)C)CC4)nc3c2)c1=O [B102]	2.2e-08	1.9e-07	2.8e-07	6.2e-07	–	–	–
CCCN1CCC(c2cn(CC)c3ccc(NC=c4sc(=C(C#N)C(=O)NCC#N)n(CC)c4=O)cc23)CC1 [B109]	3.5e-09	1.4e-07	5.4e-08	1.6e-07	–	–	–
CCn1c(=C(C#N)C(=O)NCC#N)sc(=CNc2ccc3c(c2)c(C2CCN(C4CC4)CC2)cn3C)c1=O [B115]	1.3e-09	1.1e-07	3.7e-08	1.3e-07	–	–	–
CCn1c(=O)c(=CNc2ccc3c(c2)c(C2CCN(C)CC2)cn3C)s/c1=C(/C#N)C(=O)NCC(F)(F)F [B118, (Z,E/Z)-2-Cyan-2-[3-ethyl-5-[[[1-methyl-3-(1-methyl-4-piperidinyl)-1H-indol-5-yl]amino]methylen]-4-oxo-2-thiazolidinyliden]-N-(2,2,2-trifluorethyl)acetamid]	2.1e-09	2.9e-07	8.5e-08	1.7e-07	–	–	–
CCn1c(=O)c(=CNc2ccc3c(c2)c(C2CCN(C4CC4)CC2)cn3C)s/c1=C(/C#N)C(=O)NCC(F)(F)F [B123]	1.2e-08	6.2e-07	2.3e-07	5e-07	–	–	–
CCn1c(=O)c(=CNc2ccc3c(C4CCN(C)CC4)cn(C)c3c2)s/c1=C(/C#N)C(=O)NCC#N [B130]	1e-09	1.4e-07	8.4e-08	3.7e-07	–	–	–
CCn1c(=C(C#N)C(=O)NCC(F)(F)F)sc(=CNc2ccc3ccn(CCN4CCCC4)c3c2)c1=O [B132]	3.3e-09	4.5e-07	2.2e-07	4e-07	–	–	–
CCn1c(=O)c(=CNc2ccc3ncn(C4CCN(C)CC4)c3c2)s/c1=C(/C#N)C(=O)NCC(F)(F)F [B147]	3.1e-09	2.4e-07	1.3e-07	2.4e-07	–	–	–
